Measurements as given in ChEMBL document CHEMBL5365463, “Identification of a Self-Assembling Small-Molecule Cancer Vaccine Adjuvant with an Improved Toxicity Profile” (J Med Chem, 2023).
The source made the active and inactive calls. No cut-off for these calls is given here.

How the values were obtained:
BMDC [1] = experiment: Induction of IL-6 production in mouse BMDC cells at 100 uM; type: functional, cell-based
RAW264.7 [2] = experiment: Induction of apoptosis in mouse RAW264.7 cells assessed as necrotic cells at 10 uM by flow cytometry analysis (reference value: 28.7 %); type: functional
RAW264.7 [3] = experiment: Induction of apoptosis in mouse RAW264.7 cells assessed as apoptotic cells at 16 uM by flow cytometry analysis (reference value: 3.06 %); type: functional
RAW264.7 [4] = experiment: Induction of apoptosis in mouse RAW264.7 cells assessed as live cells at 10 uM by flow cytometry analysis (reference value: 67.2 %); type: functional
Mus musculus = experiment: Immuno-adjuvant activity in SV-immunized C57BL/6 mouse assessed as increase in HA-specific IgG1 titer level at 100 ug, sc administered immediately and on day 0, 14 and measured at day 21 by ELISA; type: functional, organism-based; conditions: dose 100.0 µg, time 21.0 day
[5] = Toxicity in BALB/c mouse assessed as increase in Timp1 expression at 100 to 1000 ug measured after 16 hrs in presence of hemagglutinin; conditions: in vivo, dose 100-1000 µg
[6] = Toxicity in BALB/c mouse assessed as increase in Mx2 expression at 100 to 1000 ug measured after 16 hrs in presence of hemagglutinin; conditions: in vivo, dose 100-1000 µg
BMDC [7] = experiment: Induction of immune response in TLR7 knockout mouse BMDC cells assessed as increase in IFN-beta production at 10 to 100 uM incubated for 24 hrs by ELISA method; type: functional, cell-based; conditions: dose 10-100 µM
BMDC [8] = experiment: Induction of immune response in TLR7 knockout mouse BMDC cells assessed as increase in MIP-1alpha production at 10 to 100 uM incubated for 24 hrs by ELISA method; type: functional, cell-based; conditions: dose 10-100 µM
RAW264.7 [9] = experiment: Induction of apoptosis in mouse RAW264.7 cells assessed as necrotic cells at 8 uM by flow cytometry analysis (reference value: 28.7 %); type: functional
RAW264.7 [10] = experiment: Induction of apoptosis in mouse RAW264.7 cells assessed as apoptotic cells at 8 uM by flow cytometry analysis (reference value: 3.06 %); type: functional
RAW264.7 [11] = experiment: Induction of apoptosis in mouse RAW264.7 cells assessed as necrotic cells at 12 uM by flow cytometry analysis (reference value: 28.7 %); type: functional
RAW264.7 [12] = experiment: Induction of apoptosis in mouse RAW264.7 cells assessed as live cells at 4 uM by flow cytometry analysis (reference value: 67.2 %); type: functional
[13] = Toxicity in BALB/c mouse assessed as effect on body weight loss at 1000 ug measured after 16 hrs in presence of hemagglutinin; conditions: in vivo, dose 1000 µg
RAW264.7 [14] = experiment: Induction of apoptosis in mouse RAW264.7 cells assessed as live cells at 16 uM by flow cytometry analysis (reference value: 67.2 %); type: functional
RAW264.7 [15] = experiment: Induction of apoptosis in mouse RAW264.7 cells assessed as apoptotic cells at 10 uM by flow cytometry analysis (reference value: 3.06 %); type: functional
BMDC [16] = experiment: Induction of immune response in TLR7 knockout mouse BMDC cells assessed as increase in CXCL10 production at 10 to 100 uM incubated for 24 hrs by ELISA method; type: functional, cell-based; conditions: dose 10-100 µM
RAW264.7 [17] = experiment: Induction of apoptosis in mouse RAW264.7 cells assessed as necrotic cells at 16 uM by flow cytometry analysis (reference value: 28.7 %); type: functional
[18] = Toxicity in BALB/c mouse assessed as reduction in leukocyte count measured after 16 hrs; conditions: dose 100-1000 µg
RAW264.7 [19] = experiment: Induction of apoptosis in mouse RAW264.7 cells assessed as apoptotic cells at 12 uM by flow cytometry analysis (reference value: 3.06 %); type: functional
RAW264.7 [20] = experiment: Induction of apoptosis in mouse RAW264.7 cells assessed as live cells at 12 uM by flow cytometry analysis (reference value: 67.2 %); type: functional
RAW264.7 [21] = experiment: Induction of apoptosis in mouse RAW264.7 cells assessed as live cells at 8 uM by flow cytometry analysis (reference value: 67.2 %); type: functional
BMDC [22] = experiment: Induction of immune response in TLR7 knockout mouse BMDC cells assessed as increase in TNF-alpha production at 10 to 100 uM incubated for 24 hrs by ELISA method; type: functional, cell-based; conditions: dose 10-100 µM
RAW264.7 [23] = experiment: Induction of apoptosis in mouse RAW264.7 cells assessed as apoptotic cells at 4 uM by flow cytometry analysis (reference value: 3.06 %); type: functional
RAW264.7 [24] = experiment: Induction of apoptosis in mouse RAW264.7 cells assessed as necrotic cells at 4 uM by flow cytometry analysis (reference value: 28.7 %); type: functional
BMDC [25] = experiment: Induction of immune response in TLR7 knockout mouse BMDC cells assessed as increase in IL-6 production at 10 to 100 uM incubated for 24 hrs by ELISA method; type: functional, cell-based; conditions: dose 10-100 µM

Question: With `C[C@H](CCC(=O)NCCCCCNC(=O)CC[C@@H](C)[C@H]1CC[C@H]2[C@@H]3[C@H](O)C[C@@H]4C[C@H](O)CC[C@]4(C)[C@H]3CC[C@]12C)[C@H]1CC[C@H]2[C@@H]3[C@H](O)C[C@H]4C[C@H](O)CC[C@]4(C)[C@H]3CC[C@]12C` as the compound, how does the Activity (BMDC [1]) read?
Answer: Active

Question: Which results are given for `C[C@H](CCC(=O)NCCCCCNC(=O)CC[C@@H](C)[C@H]1CC[C@H]2[C@@H]3CC[C@@H]4C[C@H](O)CC[C@]4(C)[C@H]3C[C@H](O)[C@]12C)[C@H]1CC[C@H]2[C@@H]3CC[C@@H]4C[C@H](O)CC[C@]4(C)[C@H]3C[C@H](O)[C@]12C`?
Answer: Activity (RAW264.7 [2]): 63.8%; Activity (RAW264.7 [3]): 0.034%; Activity (RAW264.7 [4]): 33.5%; Activity (Mus musculus): Active; Activity [5]: Toxic; Activity [6]: Toxic; Activity (BMDC [7]): inactive; Activity (BMDC [8]): inactive; Activity (RAW264.7 [9]): 29.4%; Activity (RAW264.7 [10]): 2.26%; Activity (RAW264.7 [11]): 69.7%; Activity (RAW264.7 [12]): 67.4%; Activity [13]: Toxic; Activity (RAW264.7 [14]): 11.6%; Activity (RAW264.7 [15]): 0.6%; Activity (BMDC [16]): inactive; Activity (RAW264.7 [17]): 85%; Activity [18]: Dose-Dependent Effect; Activity (RAW264.7 [19]): 0.13%; Activity (RAW264.7 [20]): 27.9%; Activity (RAW264.7 [21]): 66.9%; Activity (BMDC [22]): inactive; Activity (RAW264.7 [23]): 2.23%; Activity (RAW264.7 [24]): 28.6%; Activity (BMDC [25]): inactive
